The record followed here is US20250154112A1, “A PREPARATION OF QUINAZOLINEDIONES AND USE THEREOF” (COUNCIL OF SCIENTIFIC AND INDUSTRIAL RESEARCH AN INDIAN …, priority 2021, published 2025).

One assay deals with T1, COP1 (Mus musculus, UniProt Q9R1A8).
T1 construct: from tissue; host or cells: liver and adipose tissue of C57BL/6 mice
The experiment in a line: In vivo study, Western blot of COP1 in mice liver and adipose tissue. As to conditions: 80 mg/kg orally, 9 days. Also on record: species or system C57BL/6 mice. Here is the method: (§1) 6-8 weeks old healthy male C57BL/6 mice (average weight: 28 grams) were taken for the study. These were then divided into two groups comprising of three mice per group (Control, compound 62). Mice were fed with 80 mg/kg of compound 62 orally. The compound was dissolved in 10% EtOH, 40% PEG, 20% PG, 30% NaCl solution (0.9%). The control group was fed only with the solvent in which the compound was dissolved. Post 9 days of one-time feeding mice were sacrificed and a portion of the excised liver tissue and adipose was homogenized in lysis buffer containing protease inhibitor cocktail. The homogenate was centrifuged at 20,000 g for 30 minutes following which the supernatant containing the protein lysate was collected. The lysate was then diluted accordingly, and protein estimation was carried out by Bradford Assay. This was followed by Western Blotting wherein the levels of ATGL and COP1 were checked. Actin was used as the loading control.

Assay [1] concerns C57BL/6 mice fed with high fat diet (HFD). The experiment in a line: HFD induced fatty liver disease model. The conditions noted are these: HFD 12 weeks, 80 mg/kg orally for the last 4 weeks. It counts as in vivo. How it is done: A preclinical therapeutic model was developed where C57BL/6 mice were fed with 60% kcal high fat diet (HFD) for 12 weeks, and for the last 4 weeks the mice were orally fed with the compound 62 at 80 mg/kg body weight dose.

The subject of the next assay is ATGL. The experiment in a line: In vivo study, Western blot of ATGL in mice liver and adipose tissue. Also on record: species or system C57BL/6 mice. The conditions noted are these: 80 mg/kg orally, 9 days. Here is the method:
as §1

T1 sequence (Q9R1A8 whole entry): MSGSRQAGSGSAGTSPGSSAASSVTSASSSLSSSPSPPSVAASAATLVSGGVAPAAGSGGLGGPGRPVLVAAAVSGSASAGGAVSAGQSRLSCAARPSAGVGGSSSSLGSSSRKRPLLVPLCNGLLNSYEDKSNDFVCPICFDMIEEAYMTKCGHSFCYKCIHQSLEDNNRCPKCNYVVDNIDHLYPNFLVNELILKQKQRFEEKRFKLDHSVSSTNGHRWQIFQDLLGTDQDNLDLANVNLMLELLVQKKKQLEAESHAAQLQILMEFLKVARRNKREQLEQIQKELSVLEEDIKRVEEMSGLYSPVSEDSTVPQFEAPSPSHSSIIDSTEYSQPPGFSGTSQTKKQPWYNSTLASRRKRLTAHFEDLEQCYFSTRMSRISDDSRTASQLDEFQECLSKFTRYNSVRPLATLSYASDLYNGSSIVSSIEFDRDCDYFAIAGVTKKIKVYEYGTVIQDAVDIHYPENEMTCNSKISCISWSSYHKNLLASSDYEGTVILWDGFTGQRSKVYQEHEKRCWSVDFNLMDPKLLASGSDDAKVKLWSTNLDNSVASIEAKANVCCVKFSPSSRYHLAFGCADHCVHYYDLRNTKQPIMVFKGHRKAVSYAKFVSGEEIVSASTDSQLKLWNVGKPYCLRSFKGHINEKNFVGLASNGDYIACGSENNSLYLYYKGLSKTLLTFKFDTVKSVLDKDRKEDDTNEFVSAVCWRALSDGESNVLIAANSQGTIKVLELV

`COCCn1c(=O)c2cc(NC(=O)Nc3cccc(C(C)=O)c3)ccc2n(CCN2CCCCC2)c1=O` [Compound 62, 1-(3-acetylphenyl)-3-(3-(2-methoxyethyl)-2,4-dioxo-1-(2-(piperidin-1-yl)ethyl)-1,2,3,4-tetrahydroquinazolin-6-yl)urea]: the “COP1 levels in liver and adipose lysates” value on COP1 is “effective in increasing ATGL and COP1 levels”. In assay [1], the body weight entry was “Reductions”, the hepatic fibrogenesis entry is listed as “improvement in hepatic fibrogenesis”, the “hepatic lipid droplets (FIG. 7A)” value is reported as “considerable depletion of hepatic lipid droplets” and the liver triglyceride content result is “Reductions”. Moreover, in assay [1], the serum cholesterol level entry is recorded as “Reductions” and the total liver weight result is “Reductions”. Besides, in the assay with ATGL, the “ATGL levels in liver and adipose lysates” value was “effective in increasing ATGL and COP1 levels”.
